Laboratory results: PubChem BioAssay AID248 (DTP/NCI, 2004)
Where “and” joins values, the source holds several entries; their conditions need not be identical. Equal entries are not always repeated. Toxic doses and inconclusive results are not listed. Rule as the data show it: active = T/C of 150% or more; inactive = T/C below 125%.

System: L1210 leukemia ip in BDF1 mice, survival T/C
Test: NCI In Vivo Anticancer Drug Screen. Data for tumor model L1210 Leukemia (intraperitoneal) in B6D2F1 (BDF1) mice
Conditions: endpoint: mean survival time, higher = longer survival
Outline: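 Mice bearing the transplanted tumor received compound or vehicle. Survival of the treated group was divided by that of the vehicle-treated control group to give the ratio.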

[1] = dose: 200.0 mg/kg/injection, schedule: Q01DX001 (ip), vehicle: Klucel (hydroxypropylcellulose) (HPC)
[2] = dose: 400.0 mg/kg/injection, schedule: Q01DX001 (ip), vehicle: Klucel (hydroxypropylcellulose) (HPC)
[3] = dose: 12.5 mg/kg/injection, schedule: Q04DX002 (ip), vehicle: Klucel (hydroxypropylcellulose) (HPC)
[4] = dose: 25.0 mg/kg/injection, schedule: Q04DX002 (ip), vehicle: Klucel (hydroxypropylcellulose) (HPC)
[5] = dose: 100.0 mg/kg/injection, schedule: Q01DX009 (ip), vehicle: Klucel (hydroxypropylcellulose) (HPC)
[6] = dose: 200.0 mg/kg/injection, schedule: Q01DX009 (ip), vehicle: Klucel (hydroxypropylcellulose) (HPC)
[7] = dose: 400.0 mg/kg/injection, schedule: Q01DX009 (ip), vehicle: Klucel (hydroxypropylcellulose) (HPC)
[8] = dose: 100.0 mg/kg/injection, schedule: Q01DX009 (ip), vehicle: saline with Tween-80
[9] = dose: 100.0 mg/kg/injection, schedule: Q04DX003 (ip), vehicle: saline with Tween-80
[10] = dose: 200.0 mg/kg/injection, schedule: Q01DX009 (ip), vehicle: saline with Tween-80
[11] = dose: 200.0 mg/kg/injection, schedule: Q04DX003 (ip), vehicle: saline with Tween-80
[12] = dose: 400.0 mg/kg/injection, schedule: Q01DX009 (ip), vehicle: saline with Tween-80
[13] = dose: 400.0 mg/kg/injection, schedule: Q04DX003 (ip), vehicle: saline with Tween-80
[14] = dose: 100.0 mg/kg/injection, schedule: Q01DX009 (ip), vehicle: saline
[15] = dose: 100.0 mg/kg/injection, schedule: Q04DX003 (ip), vehicle: saline
[16] = dose: 200.0 mg/kg/injection, schedule: Q01DX009 (ip), vehicle: saline
[17] = dose: 200.0 mg/kg/injection, schedule: Q04DX003 (ip), vehicle: saline
[18] = dose: 400.0 mg/kg/injection, schedule: Q01DX009 (ip), vehicle: saline
[19] = dose: 100.0 mg/kg/injection, schedule: Q04DX003 (ip), vehicle: Klucel (hydroxypropylcellulose) (HPC)
[20] = dose: 200.0 mg/kg/injection, schedule: Q04DX003 (ip), vehicle: Klucel (hydroxypropylcellulose) (HPC)
[21] = dose: 400.0 mg/kg/injection, schedule: Q04DX003 (ip), vehicle: Klucel (hydroxypropylcellulose) (HPC)
[22] = dose: 200.0 mg/kg/injection, schedule: Q01DX001 (ip), vehicle: saline
[23] = dose: 50.0 mg/kg/injection, schedule: Q04DX002 (ip), vehicle: Klucel (hydroxypropylcellulose) (HPC)

Measured: T/C

c1ccc(C(=C2CC34CCCC23CC4)c2ccccc2)cc1 (stereo not drawn)
inactive: dose: 37.5 mg/kg/injection, schedule: Q04DX002 (ip), vehicle: saline with Tween-80 95 % of control | dose: 75.0 mg/kg/injection, schedule: Q04DX002 (ip), vehicle: saline with Tween-80 98 % of control | dose: 150.0 mg/kg/injection, schedule: Q04DX002 (ip), vehicle: saline with Tween-80 91 % of control | dose: 300.0 mg/kg/injection, schedule: Q04DX002 (ip), vehicle: saline with Tween-80 91 % of control

CCOC(=O)N/N=C/c1ccccc1
inactive: [1] 108 % of control | [2] 118 % of control

Cc1c2cc3c(c1O)C(=O)CC(O3)c1ccc(O)c(c1)-c1ccc(O)c(c1)C(=O)OCC1OC(O2)C(O)C(O)C1O (stereo not drawn)
inactive: dose: 0.13 mg/kg/injection, schedule: Q01DX009 (ip), vehicle: Klucel (hydroxypropylcellulose) (HPC) 98 % of control | dose: 0.25 mg/kg/injection, schedule: Q01DX009 (ip), vehicle: Klucel (hydroxypropylcellulose) (HPC) 95 % of control | dose: 0.5 mg/kg/injection, schedule: Q01DX009 (ip), vehicle: Klucel (hydroxypropylcellulose) (HPC) 101 % of control | dose: 1.0 mg/kg/injection, schedule: Q01DX009 (ip), vehicle: Klucel (hydroxypropylcellulose) (HPC) 114 % of control

CC(=O)OC(C#N)c1cccc([N+](=O)[O-])c1 (stereo not drawn)
inactive: dose: 6.25 mg/kg/injection, schedule: Q04DX002 (ip), vehicle: Klucel (hydroxypropylcellulose) (HPC) 97 % of control | [3] 102 % of control | [4] 100 % of control and 92 % of control

Cc1cc(C)c(NC(=O)c2ccco2)cc1C
inactive: [5] 105 % of control | [6] 92 % of control | [7] 105 % of control

Cc1ccc(C)c(-n2nnc3ccccc3c2=O)c1
inactive: [8] 89 % of control | [9] 95 % of control | [10] 92 % of control | [11] 101 % of control | [12] 91 % of control | [13] 96 % of control

C#C/C=C/CC1OC(C(Br)CC)CC2OC1CC2Br (stereo not drawn)
inactive: dose: 75.0 mg/kg/injection, schedule: Q01DX001 (ip), vehicle: carboxymethylcellulose (CMC) 94 % of control | dose: 150.0 mg/kg/injection, schedule: Q01DX001 (ip), vehicle: carboxymethylcellulose (CMC) 96 % of control | dose: 300.0 mg/kg/injection, schedule: Q01DX001 (ip), vehicle: carboxymethylcellulose (CMC) 96 % of control

C[n+]1ccccc1/C=C/c1ccc(O)c2ccccc12
inactive: dose: 15.0 mg/kg/injection, schedule: Q01DX001 (ip), vehicle: saline 97 % of control | dose: 30.0 mg/kg/injection, schedule: Q01DX001 (ip), vehicle: saline 91 % of control | dose: 60.0 mg/kg/injection, schedule: Q01DX001 (ip), vehicle: saline 103 % of control | dose: 75.0 mg/kg/injection, schedule: Q01DX001 (ip), vehicle: saline 103 % of control

O=[N+]([O-])Nc1ccc(C(c2ccc(N[N+](=O)[O-])cc2)c2ccc([N+](=O)[O-])cc2)cc1
inactive: dose: 100.0 mg/kg/injection, schedule: Q01DX005 (ip), vehicle: saline with Tween-80 89 % of control | [8] 100 % of control | dose: 200.0 mg/kg/injection, schedule: Q01DX005 (ip), vehicle: saline with Tween-80 100 % of control | [10] 92 % of control | dose: 400.0 mg/kg/injection, schedule: Q01DX005 (ip), vehicle: saline with Tween-80 89 % of control | [12] 94 % of control

COC(=O)c1cc([N+](=O)[O-])ccc1Cl
inactive: [14] 87 % of control | [15] 98 % of control | [16] 95 % of control | [17] 97 % of control | [18] 101 % of control | dose: 400.0 mg/kg/injection, schedule: Q04DX003 (ip), vehicle: saline 95 % of control

Cc1cc(=O)n(-c2ccccc2)cn1
inactive: [19] 98 % of control | [20] 89 % of control | [21] 96 % of control

COC(=O)C12OCC34C(CC5C(C)=C(O)C(=O)CC5(C)C3C(O)C1O)OC(=O)C(OC(=O)/C=C(\C)C(C)(C)O)C24 (stereo not drawn)
inactive: dose: 0.06 mg/kg/injection, schedule: Q01DX009 (ip), vehicle: saline with Tween-80 116 % of control | dose: 0.5 mg/kg/injection, schedule: Q01DX009 (ip), vehicle: saline with Tween-80 112 % of control | dose: 1.0 mg/kg/injection, schedule: Q01DX009 (ip), vehicle: saline with Tween-80 105 % of control | dose: 2.0 mg/kg/injection, schedule: Q01DX009 (ip), vehicle: saline with Tween-80 107 % of control

O=C1C2C(C(=O)N1c1ccccc1)N2CCO (stereo not drawn)
inactive: [5] 107 % of control | [19] 113 % of control | [6] 103 % of control | [20] 108 % of control | [7] 97 % of control | [21] 113 % of control

O=S(=O)(O)CCCN1CCCCC1
inactive: [14] 107 % of control | [16] 112 % of control | [18] 98 % of control

c1ccc(C(NC(c2ccccc2)c2ccccc2)c2ccccc2)cc1
inactive: dose: 50.0 mg/kg/injection, schedule: Q01DX001 (ip), vehicle: saline 91 % of control | dose: 100.0 mg/kg/injection, schedule: Q01DX001 (ip), vehicle: saline 97 % of control | [22] 93 % of control | dose: 400.0 mg/kg/injection, schedule: Q01DX001 (ip), vehicle: saline 97 % of control

COc1ccc(-n2cnc3c(=O)[nH]c(N)nc32)cc1
inactive: [22] 92 % of control

Cc1cccc(C(=O)O)n1.[Cu+2]
inactive: dose: 5.0 mg/kg/injection, schedule: Q01DX001 (ip), vehicle: saline 103 % of control | dose: 10.0 mg/kg/injection, schedule: Q01DX001 (ip), vehicle: saline 113 % of control

O=C(O)/C=C/S(=O)(=O)c1ccc(Cl)cc1
inactive: [3] 101 % of control | dose: 25.0 mg/kg/injection, schedule: Q01DX009 (ip), vehicle: Klucel (hydroxypropylcellulose) (HPC) 97 % of control | [4] 97 % of control | dose: 50.0 mg/kg/injection, schedule: Q01DX009 (ip), vehicle: Klucel (hydroxypropylcellulose) (HPC) 97 % of control | [23] 108 % of control | dose: 100.0 mg/kg/injection, schedule: Q04DX002 (ip), vehicle: Klucel (hydroxypropylcellulose) (HPC) 95 % of control

BrCc1c(CBr)c(CBr)c(CBr)c(CBr)c1CBr
inactive: [5] 98 % of control | [19] 94 % of control | [6] 97 % of control | [20] 96 % of control | [7] 97 % of control | [21] 96 % of control

CC(NC1CCCCC1)C(=O)O (stereo not drawn)
inactive: [3] 93 % of control | [4] 96 % of control | [23] 89 % of control

CC(C)(C)c1cc(C#N)cc(Br)c1OP(=O)(Oc1c(Br)cc(C#N)cc1C(C)(C)C)c1ccccc1
inactive: dose: 100.0 mg/kg/injection, schedule: Q04DX002 (ip), vehicle: saline with Tween-80 95 % of control | dose: 200.0 mg/kg/injection, schedule: Q04DX002 (ip), vehicle: saline with Tween-80 92 % of control | dose: 400.0 mg/kg/injection, schedule: Q04DX002 (ip), vehicle: saline with Tween-80 97 % of control

O=C(O)c1ccccc1C(=O)c1ccc(-c2ccccc2)cc1
inactive: dose: 100.0 mg/kg/injection, schedule: Q01DX001 (ip), vehicle: Klucel (hydroxypropylcellulose) (HPC) 110 % of control | [1] 102 % of control | [2] 100 % of control

COc1ccc(C(C)c2ccccc2)cc1C(C)c1ccccc1 (stereo not drawn)
inactive: [8] 93 % of control | [9] 98 % of control | [10] 95 % of control | [11] 89 % of control | [12] 88 % of control | [13] 98 % of control

CC1(C)N=C(N)N=C(N)N1c1ccc(CN)cc1
inactive: [15] 109 % of control | [17] 101 % of control
